In PubChem BioAssay (NCI):
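48-hour exposure; five concentrations; linearly interpolated endpoints. GI50 marks 50% less growth. The concentration for full growth arrest is given as TGI.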

Key:
Assay in all cases: growth of human tumour cells (NCI), 48 h
[1] = system: SF-268 CNS
[2] = system: MALME-3M melanoma
[3] = system: MOLT-4 leukemia
[4] = system: MDA-MB-468 breast
[5] = system: HCT-116 colon
[6] = system: MDA-MB-231 breast
[7] = system: A549 NSCLC
[8] = system: SR leukemia
[9] = system: KM12 colon
[10] = system: UACC-62 melanoma
[11] = system: DU-145 prostate
[12] = system: SK-OV-3 ovarian
[13] = system: EKVX NSCLC
[14] = system: RPMI-8226 leukemia
[15] = system: M14 melanoma
[16] = system: SF-539 CNS
[17] = system: IGROV1 ovarian
[18] = system: NCI-H522 lung
[19] = system: OVCAR-5 ovarian
[20] = system: SK-MEL-5 melanoma
[21] = system: NCI-H23 lung
[22] = system: OVCAR-4 ovarian
[23] = system: TK-10 renal
[24] = system: HOP-62 NSCLC
[25] = system: COLO 205 colon
[26] = system: NCI-H460 lung
[27] = system: SNB-19 CNS
[28] = system: UO-31 renal
[29] = system: HT29 colon
[30] = system: OVCAR-8 ovarian
[31] = system: CCRF-CEM leukemia
[32] = system: PC-3 prostate
[33] = system: HCC-2998 colon
[34] = system: HCT-15 colon
[35] = system: LOX IMVI melanoma
[36] = system: 786-0 renal
[37] = system: HOP-92 NSCLC
[38] = system: SF-295 CNS
[39] = system: A498 renal
[40] = system: HL-60(TB) leukemia
[41] = system: SN12C renal
[42] = system: BT-549 breast
[43] = system: SNB-75 CNS
[44] = system: U251 CNS
[45] = system: MCF7 breast
[46] = system: T-47D breast
[47] = system: OVCAR-3 ovarian
[48] = system: CAKI-1 renal
[49] = system: K-562 leukemia
[50] = system: NCI-H226 lung
[51] = system: SK-MEL-28 melanoma
[52] = system: UACC-257 melanoma
[53] = system: NCI/ADR-RES ovarian
[54] = system: MDA-MB-435
[55] = system: SW-620 colon
[56] = system: ACHN renal
[57] = system: SK-MEL-2 melanoma
[58] = system: RXF 393 renal
[59] = system: HS 578T breast

Compound: COc1cc(/C=C/C(=O)c2cc(OC)c(OC)c(OC)c2)ccc1Oc1nc(Nc2ccc(F)cc2)nc(N(C)C)n1
- GI50 [1]: 3.43 µM
- TGI [1]: > 100 µM
- GI50 [2]: 1.75 µM
- TGI [2]: 4.21 µM
- GI50 [3]: 0.472 µM
- TGI [3]: > 100 µM
- GI50 [4]: 1.35 µM
- TGI [4]: 3.51 µM
- GI50 [5]: 1.4 µM
- TGI [5]: 3.18 µM
- GI50 [6]: 1.48 µM
- TGI [6]: 3.58 µM
- GI50 [7]: 4.49 µM
- TGI [7]: 19.2 µM
- GI50 [8]: 0.7 µM
- TGI [8]: > 100 µM
- GI50 [9]: 3.63 µM
- TGI [9]: 88.6 µM
- GI50 [10]: 1.41 µM
- TGI [10]: 3 µM
- GI50 [11]: 3.99 µM
- TGI [11]: 18.7 µM
- GI50 [12]: 8.42 µM
- TGI [12]: 29.9 µM
- GI50 [13]: 2.15 µM
- TGI [13]: 9.12 µM
- GI50 [14]: 0.751 µM
- TGI [14]: 5.21 µM
- GI50 [15]: 2.83 µM
- TGI [15]: 10.8 µM
- GI50 [16]: 1.64 µM
- TGI [16]: 3.09 µM
- GI50 [17]: 1.93 µM
- TGI [17]: 4.49 µM
- GI50 [18]: 1.47 µM
- TGI [18]: 3.24 µM
- GI50 [19]: 1.48 µM
- TGI [19]: 3.89 µM
- GI50 [20]: 2.16 µM
- TGI [20]: 4.83 µM
- GI50 [21]: 1.63 µM
- TGI [21]: 3.63 µM
- GI50 [22]: 2.07 µM
- TGI [22]: 10.6 µM
- GI50 [23]: 2.53 µM
- TGI [23]: 7.3 µM
- GI50 [24]: 1.83 µM
- TGI [24]: 3.88 µM
- GI50 [25]: 4.45 µM
- TGI [25]: 16.8 µM
- GI50 [26]: 1.45 µM
- TGI [26]: 3.3 µM
- GI50 [27]: 1.86 µM
- TGI [27]: 4.58 µM
- GI50 [28]: 1.12 µM
- TGI [28]: 2.36 µM
- GI50 [29]: 1.54 µM
- TGI [29]: 3.55 µM
- GI50 [30]: 1.55 µM
- TGI [30]: 6.57 µM
- GI50 [31]: 2.19 µM
- TGI [31]: > 100 µM
- GI50 [32]: 2.77 µM
- TGI [32]: 30.9 µM
- GI50 [33]: 2.03 µM
- TGI [33]: 4.16 µM
- GI50 [34]: 1.18 µM
- TGI [34]: 2.75 µM
- GI50 [35]: 0.478 µM
- TGI [35]: 1.69 µM
- GI50 [36]: 1.45 µM
- TGI [36]: 3.23 µM
- GI50 [37]: 1.67 µM
- TGI [37]: 6.72 µM
- GI50 [38]: 1.98 µM
- TGI [38]: 5.49 µM
- GI50 [39]: 3.99 µM
- TGI [39]: 15.2 µM
- GI50 [40]: 2.21 µM
- TGI [40]: 8.24 µM
- GI50 [41]: 1.23 µM
- TGI [41]: 2.73 µM
- GI50 [42]: 1.56 µM
- TGI [42]: 3.2 µM
- GI50 [43]: 2.54 µM
- TGI [43]: 21.1 µM
- GI50 [44]: 0.503 µM
- TGI [44]: 2.43 µM
- GI50 [45]: 1.06 µM
- TGI [45]: 4.07 µM
- GI50 [46]: 1.87 µM
- TGI [46]: 56.1 µM
- GI50 [47]: 2.57 µM
- TGI [47]: > 100 µM
- GI50 [48]: 1.98 µM
- TGI [48]: 6.67 µM
- GI50 [49]: 1.4 µM
- TGI [49]: > 100 µM
- GI50 [50]: 1.44 µM
- TGI [50]: 3.23 µM
- GI50 [51]: 1.8 µM
- TGI [51]: 4.07 µM
- GI50 [52]: 2.83 µM
- TGI [52]: 12.6 µM
- GI50 [53]: 1.42 µM
- TGI [53]: 3.39 µM
- GI50 [54]: 1.63 µM
- TGI [54]: 3.54 µM
- GI50 [55]: 1.55 µM
- TGI [55]: 3.27 µM
- GI50 [56]: 2.3 µM
- TGI [56]: 7.48 µM
- GI50 [57]: 1.69 µM
- TGI [57]: 3.79 µM

Compound: COc1ccc2[nH]c(=O)cc(-n3ncc(C(=O)/C=C/c4cc(OC)c(OC)c(OC)c4)c3C)c2c1
- GI50 [1]: 10.4 µM
- TGI [1]: 34.8 µM
- GI50 [2]: 6.82 µM
- TGI [2]: 19.9 µM
- GI50 [3]: 3.81 µM
- TGI [3]: 64.9 µM
- GI50 [4]: 2.5 µM
- TGI [4]: 7.3 µM
- GI50 [5]: 7.41 µM
- TGI [5]: 21.7 µM
- GI50 [6]: 5.4 µM
- TGI [6]: 18.6 µM
- GI50 [7]: 11.5 µM
- TGI [7]: 52.2 µM
- GI50 [8]: 4.2 µM
- TGI [8]: > 100 µM
- GI50 [9]: 13.2 µM
- TGI [9]: 30.1 µM
- GI50 [10]: 7.17 µM
- TGI [10]: 20.2 µM
- GI50 [11]: 3.29 µM
- TGI [11]: 10.8 µM
- GI50 [12]: 12 µM
- TGI [12]: 36.5 µM
- GI50 [13]: 5.16 µM
- TGI [13]: 20.1 µM
- GI50 [14]: 2.91 µM
- TGI [14]: 15 µM
- GI50 [15]: 8.64 µM
- TGI [15]: 29.9 µM
- GI50 [16]: 2.68 µM
- TGI [16]: 9.09 µM
- GI50 [17]: 3.46 µM
- TGI [17]: 13.5 µM
- GI50 [18]: 3.6 µM
- TGI [18]: 13.3 µM
- GI50 [19]: 3.99 µM
- TGI [19]: 15.1 µM
- GI50 [20]: 10.3 µM
- TGI [20]: 22 µM
- GI50 [21]: 3.5 µM
- TGI [21]: 13 µM
- GI50 [22]: 12.4 µM
- TGI [22]: 42.9 µM
- GI50 [23]: 8.02 µM
- TGI [23]: 20.9 µM
- GI50 [24]: 11.2 µM
- TGI [24]: 26.4 µM
- GI50 [25]: 4.94 µM
- TGI [25]: 17.2 µM
- GI50 [26]: 3.28 µM
- TGI [26]: 13.6 µM
- GI50 [27]: 11.2 µM
- TGI [27]: 23.4 µM
- GI50 [28]: 5.62 µM
- TGI [28]: 18.9 µM
- GI50 [29]: 3.15 µM
- TGI [29]: 11 µM
- GI50 [30]: 3.46 µM
- TGI [30]: 12.3 µM
- GI50 [31]: 2.76 µM
- TGI [31]: 16.8 µM
- GI50 [32]: 10 µM
- TGI [32]: 38 µM
- GI50 [33]: 11.5 µM
- TGI [33]: 24 µM
- GI50 [34]: 3.57 µM
- TGI [34]: 15.7 µM
- GI50 [35]: 2.75 µM
- TGI [35]: 9.83 µM
- GI50 [36]: 11 µM
- TGI [36]: 25.3 µM
- GI50 [37]: 11.4 µM
- TGI [37]: 34.9 µM
- GI50 [38]: 4.64 µM
- TGI [38]: 16.6 µM
- GI50 [39]: 19.1 µM
- TGI [39]: 36.3 µM
- GI50 [40]: 3.88 µM
- TGI [40]: 29 µM
- GI50 [41]: 3.59 µM
- TGI [41]: 15.6 µM
- GI50 [42]: 3.47 µM
- TGI [42]: 13.8 µM
- GI50 [44]: 3.91 µM
- TGI [44]: 18.5 µM
- GI50 [45]: 3.19 µM
- TGI [45]: 11.9 µM
- GI50 [46]: 6.59 µM
- TGI [46]: 43.6 µM
- GI50 [47]: 4.04 µM
- TGI [47]: 13.9 µM
- GI50 [48]: 5.23 µM
- TGI [48]: 20 µM
- GI50 [49]: 3.24 µM
- TGI [49]: > 100 µM
- GI50 [50]: 11.1 µM
- TGI [50]: 25.4 µM
- GI50 [51]: 5.26 µM
- TGI [51]: 17.4 µM
- GI50 [52]: 12.5 µM
- TGI [52]: 26.6 µM
- GI50 [58]: 2.79 µM
- TGI [58]: 9.94 µM
- GI50 [59]: 8.96 µM
- TGI [59]: 95.2 µM
- GI50 [54]: 3.81 µM
- TGI [54]: 14.1 µM
- GI50 [55]: 3.54 µM
- TGI [55]: 13.5 µM
- GI50 [56]: 4.33 µM
- TGI [56]: 16.6 µM
- GI50 [57]: 6.06 µM
- TGI [57]: 18.7 µM
